Usually EC50 stands for the concentration that produces a half-maximal response.

The target of experiment [1] is wt FRB (K2095 T2098 W2101) (Homo sapiens, UniProt P42345+P62942). As to conditions: cited from earlier work.
In a further experiment the target is FRB-PLF (Homo sapiens, UniProt P42345+P62942, K2095P/T2098L/W2101F). The note with it: cited from earlier work.
Another experiment concerns the target FRB-KTF (Homo sapiens, UniProt P42345+P62942, W2101F). The note with it: cited from earlier work.
Experiment [2] concerns chimeric Caspase-9 polypeptide. Put plainly: Caspase-9 mutant classes and basal activity (Table 5). The class given is cell-based. The note with it: Caspase-9 mutant class; basal (ligand-independent) signaling compared with unmodified chimeric Caspase-9.
Sequence of chimeric Caspase-9 polypeptide (P62942 2-108 F37V limits assumed): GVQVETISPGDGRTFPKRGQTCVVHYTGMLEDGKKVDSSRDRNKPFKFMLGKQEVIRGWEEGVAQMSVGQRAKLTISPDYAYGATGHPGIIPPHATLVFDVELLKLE

Sequence of wt FRB (K2095 T2098 W2101) (P42345 2012-2144 limits assumed): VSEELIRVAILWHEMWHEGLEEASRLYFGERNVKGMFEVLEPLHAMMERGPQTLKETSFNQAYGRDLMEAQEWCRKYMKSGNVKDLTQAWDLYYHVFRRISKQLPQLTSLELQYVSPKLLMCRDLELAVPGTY
Sequence of wt FRB (K2095 T2098 W2101) (P62942 2-108 limits assumed): as the sequence (P62942 2-108 F37V limits assumed) above, with V36F counted along it
Sequence of FRB-PLF (P42345 2012-2144 K2095P/T2098L/W2101F limits assumed): as the sequence (P42345 2012-2144 limits assumed) above, with K84P, T87L, W90F counted along it
Sequence of FRB-PLF (P62942 2-108 limits assumed): as the sequence (P62942 2-108 F37V limits assumed) above, with V36F counted along it
Sequence of FRB-KTF (P42345 2012-2144 W2101F): as the sequence (P42345 2012-2144 limits assumed) above, with W90F counted along it
Sequence of FRB-KTF (P62942 2-108): as the sequence (P62942 2-108 F37V limits assumed) above, with V36F counted along it

As to `CO[C@@H]1C[C@H](C[C@@H](C)[C@@H]2CC(=O)[C@H](C)/C=C(\C)[C@@H](O)[C@@H](OC)C(=O)[C@H](C)C[C@H](C)/C=C/C=C/C=C(\C)[C@H](OC(C)C)C[C@@H]3CC[C@@H](C)[C@@](O)(O3)C(=O)C(=O)N3CCCC[C@H]3C(=O)O2)CC[C@H]1O` [R-Isopropoxyrapamycin], the EC50 in experiment [1] is about 300 nM; on FRB-PLF, about 8.5 nM.
Regarding S-Butanesulfonamidorap [AP23050], the EC50 in experiment [1] is about 2.7 nM; on FRB-KTF, over 200 nM.

B1: S144A (protein)
chain: GFGDVGALEALRGNADLAYILSMEPCGHCLIINNVNFCRESGLRTRTGSNIDCEKLRRRFSSLHFMVEVKGDLTAKKMVLALLELARQDHGALDCCVVVILSHGCQASHLQFPGAVYGTDGCPVSVEKIVNIFNGTSCPSLGGKPKLFFIQACGGEQKDHGFEVASTSPEDESPGSNPEPDATPFQEGLRTFDQLDAISSLPTPSDIFVSYSTFPGFVSWRDPKSGSWYVETLDDIFEQWAHSEDLQSLLLRVANAVSVKGIYKQMPGCFNFLRKKLFFKTSASRA
On to B1, for which the “Basal Activity” value in experiment [2] is given as “Decreased”.

B2: S144D (protein)
chain: GFGDVGALEDLRGNADLAYILSMEPCGHCLIINNVNFCRESGLRTRTGSNIDCEKLRRRFSSLHFMVEVKGDLTAKKMVLALLELARQDHGALDCCVVVILSHGCQASHLQFPGAVYGTDGCPVSVEKIVNIFNGTSCPSLGGKPKLFFIQACGGEQKDHGFEVASTSPEDESPGSNPEPDATPFQEGLRTFDQLDAISSLPTPSDIFVSYSTFPGFVSWRDPKSGSWYVETLDDIFEQWAHSEDLQSLLLRVANAVSVKGIYKQMPGCFNFLRKKLFFKTSASRA
On to B2, for which, in experiment [2], the “Basal Activity” value was “Decreased”.

B3: S196D (protein)
chain: GFGDVGALESLRGNADLAYILSMEPCGHCLIINNVNFCRESGLRTRTGSNIDCEKLRRRFSDLHFMVEVKGDLTAKKMVLALLELARQDHGALDCCVVVILSHGCQASHLQFPGAVYGTDGCPVSVEKIVNIFNGTSCPSLGGKPKLFFIQACGGEQKDHGFEVASTSPEDESPGSNPEPDATPFQEGLRTFDQLDAISSLPTPSDIFVSYSTFPGFVSWRDPKSGSWYVETLDDIFEQWAHSEDLQSLLLRVANAVSVKGIYKQMPGCFNFLRKKLFFKTSASRA
In the case of B3, the “Basal Activity” value in experiment [2] was “Decreased”.

B4: T317S (protein)
chain: GFGDVGALESLRGNADLAYILSMEPCGHCLIINNVNFCRESGLRTRTGSNIDCEKLRRRFSSLHFMVEVKGDLTAKKMVLALLELARQDHGALDCCVVVILSHGCQASHLQFPGAVYGTDGCPVSVEKIVNIFNGTSCPSLGGKPKLFFIQACGGEQKDHGFEVASTSPEDESPGSNPEPDASPFQEGLRTFDQLDAISSLPTPSDIFVSYSTFPGFVSWRDPKSGSWYVETLDDIFEQWAHSEDLQSLLLRVANAVSVKGIYKQMPGCFNFLRKKLFFKTSASRA
On to B4, for which the “Basal Activity” value in experiment [2] is reported as “Decreased”.

Values taken from patent US20210147507A1, “METHODS TO AUGMENT OR ALTER SIGNAL TRANSDUCTION” (Bellicum Pharmaceuticals, Inc., priority 2017, published 2021).
